Data as given in ChEMBL document CHEMBL5291721, “A preclinical secondary pharmacology resource illuminates target-adverse drug reaction associations of marketed drugs” (Nat Commun, 2023).

Assays:
[1] = biological target: Histamine H1 receptor (Homo sapiens, UniProt P35367)
[2] = biological target: T1, Cannabinoid receptor 1 (Homo sapiens, UniProt P21554); type: functional, cell-based
[3] = biological target: T2, Cholecystokinin receptor type A (Homo sapiens, UniProt P32238)
T2 sequence (P32238 whole entry): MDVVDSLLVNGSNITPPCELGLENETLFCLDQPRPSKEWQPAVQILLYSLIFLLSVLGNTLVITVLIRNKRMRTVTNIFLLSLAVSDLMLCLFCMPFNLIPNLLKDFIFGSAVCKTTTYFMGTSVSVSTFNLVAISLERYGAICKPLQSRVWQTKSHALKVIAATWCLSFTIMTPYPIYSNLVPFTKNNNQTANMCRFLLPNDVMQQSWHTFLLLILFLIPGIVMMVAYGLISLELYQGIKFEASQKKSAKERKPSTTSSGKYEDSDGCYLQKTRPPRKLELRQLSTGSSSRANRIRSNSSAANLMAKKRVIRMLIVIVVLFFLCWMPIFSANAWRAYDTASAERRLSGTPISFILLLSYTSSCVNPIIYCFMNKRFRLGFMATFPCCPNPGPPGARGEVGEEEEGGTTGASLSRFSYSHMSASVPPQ

[4] = biological target: 5-hydroxytryptamine receptor 2A (Homo sapiens, UniProt P28223); type: functional, cell-based
[5] = biological target: T3, Neuropeptide Y receptor type 1 (Homo sapiens, UniProt P25929)
T3 sequence (P25929 whole entry): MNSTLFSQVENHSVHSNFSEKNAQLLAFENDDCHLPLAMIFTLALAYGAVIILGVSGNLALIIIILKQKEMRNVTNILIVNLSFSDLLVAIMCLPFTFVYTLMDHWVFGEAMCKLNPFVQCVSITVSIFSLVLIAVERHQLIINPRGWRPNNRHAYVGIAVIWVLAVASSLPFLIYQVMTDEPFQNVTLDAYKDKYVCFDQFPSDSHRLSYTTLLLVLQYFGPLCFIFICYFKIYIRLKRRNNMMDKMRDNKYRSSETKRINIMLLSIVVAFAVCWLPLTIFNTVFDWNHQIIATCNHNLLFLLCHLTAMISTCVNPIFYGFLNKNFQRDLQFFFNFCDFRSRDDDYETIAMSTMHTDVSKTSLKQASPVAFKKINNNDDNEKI

[6] = biological target: Muscarinic acetylcholine receptor M3 (Homo sapiens, UniProt P20309)
[7] = biological target: T4, Endothelin-1 receptor (Homo sapiens, UniProt P25101)
T4 sequence (P25101 whole entry): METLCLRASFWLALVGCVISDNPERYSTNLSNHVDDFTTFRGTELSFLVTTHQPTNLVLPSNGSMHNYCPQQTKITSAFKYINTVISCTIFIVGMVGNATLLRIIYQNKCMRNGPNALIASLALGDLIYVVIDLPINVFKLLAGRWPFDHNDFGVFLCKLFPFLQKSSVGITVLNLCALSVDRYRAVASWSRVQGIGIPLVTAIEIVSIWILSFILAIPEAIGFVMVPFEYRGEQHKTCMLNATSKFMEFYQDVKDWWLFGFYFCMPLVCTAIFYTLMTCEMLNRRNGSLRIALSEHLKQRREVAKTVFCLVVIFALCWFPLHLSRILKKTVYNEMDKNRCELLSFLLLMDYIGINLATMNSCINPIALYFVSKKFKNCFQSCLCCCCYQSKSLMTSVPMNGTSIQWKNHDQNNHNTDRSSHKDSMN

[8] = biological target: Gamma-aminobutyric acid receptor subunit alpha-1 (Rattus norvegicus, UniProt P62813); type: functional
[9] = biological target: Vasopressin V2 receptor (Homo sapiens, UniProt P30518)
[10] = biological target: cGMP-inhibited 3',5'-cyclic phosphodiesterase 3A (Homo sapiens, UniProt Q14432); type: functional
[11] = biological target: T5, Beta-2 adrenergic receptor (Homo sapiens, UniProt P07550)
[12] = biological target: T5, Beta-2 adrenergic receptor; type: functional, cell-based
[13] = biological target: Vasopressin V1a receptor (Homo sapiens, UniProt P37288)
[14] = biological target: T6, Alpha-2B adrenergic receptor (Homo sapiens, UniProt P18089)
T6 sequence (P18089 whole entry): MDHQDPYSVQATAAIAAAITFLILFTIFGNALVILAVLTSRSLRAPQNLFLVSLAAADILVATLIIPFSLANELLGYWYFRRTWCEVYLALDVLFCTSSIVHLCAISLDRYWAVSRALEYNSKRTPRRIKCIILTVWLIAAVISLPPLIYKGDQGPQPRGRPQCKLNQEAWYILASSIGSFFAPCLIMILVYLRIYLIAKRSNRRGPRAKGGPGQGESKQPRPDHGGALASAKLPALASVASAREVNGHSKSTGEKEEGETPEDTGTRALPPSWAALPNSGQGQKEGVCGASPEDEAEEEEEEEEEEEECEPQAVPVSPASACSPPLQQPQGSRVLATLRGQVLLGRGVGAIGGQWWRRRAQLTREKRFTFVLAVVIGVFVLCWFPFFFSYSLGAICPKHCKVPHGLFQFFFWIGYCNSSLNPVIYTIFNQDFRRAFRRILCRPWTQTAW

[15] = biological target: T1, Cannabinoid receptor 1; type: functional, cell-based; remark: listed apart in the source
[16] = biological target: T7, Muscarinic acetylcholine receptor M2 (Homo sapiens, UniProt P08172); type: functional, cell-based
T7 sequence (P08172 whole entry): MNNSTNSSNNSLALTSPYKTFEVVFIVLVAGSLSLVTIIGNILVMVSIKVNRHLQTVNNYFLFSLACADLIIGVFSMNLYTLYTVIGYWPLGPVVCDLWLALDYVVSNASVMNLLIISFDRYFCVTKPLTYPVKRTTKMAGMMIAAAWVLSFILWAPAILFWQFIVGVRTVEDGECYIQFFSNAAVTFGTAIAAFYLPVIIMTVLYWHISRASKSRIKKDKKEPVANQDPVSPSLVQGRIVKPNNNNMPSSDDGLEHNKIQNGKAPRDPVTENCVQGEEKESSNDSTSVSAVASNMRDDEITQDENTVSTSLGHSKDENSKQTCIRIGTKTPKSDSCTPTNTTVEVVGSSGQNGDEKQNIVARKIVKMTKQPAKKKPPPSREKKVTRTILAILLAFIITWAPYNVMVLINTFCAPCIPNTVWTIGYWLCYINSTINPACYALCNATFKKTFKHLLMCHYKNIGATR

Measured: AC50
Also: assay procedure not described here.

T5 sequence (P07550 whole entry): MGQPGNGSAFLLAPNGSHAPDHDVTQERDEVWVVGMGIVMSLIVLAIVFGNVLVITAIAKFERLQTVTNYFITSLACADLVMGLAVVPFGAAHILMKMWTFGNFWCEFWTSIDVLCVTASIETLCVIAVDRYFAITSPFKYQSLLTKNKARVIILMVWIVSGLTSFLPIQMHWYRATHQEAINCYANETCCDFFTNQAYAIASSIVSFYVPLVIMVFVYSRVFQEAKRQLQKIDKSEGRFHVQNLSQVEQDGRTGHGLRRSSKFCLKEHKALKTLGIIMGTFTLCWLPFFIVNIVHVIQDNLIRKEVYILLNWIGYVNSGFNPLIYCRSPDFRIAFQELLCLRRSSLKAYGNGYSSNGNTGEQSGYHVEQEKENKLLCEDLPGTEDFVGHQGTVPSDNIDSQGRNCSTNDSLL
T1 sequence (P21554 whole entry): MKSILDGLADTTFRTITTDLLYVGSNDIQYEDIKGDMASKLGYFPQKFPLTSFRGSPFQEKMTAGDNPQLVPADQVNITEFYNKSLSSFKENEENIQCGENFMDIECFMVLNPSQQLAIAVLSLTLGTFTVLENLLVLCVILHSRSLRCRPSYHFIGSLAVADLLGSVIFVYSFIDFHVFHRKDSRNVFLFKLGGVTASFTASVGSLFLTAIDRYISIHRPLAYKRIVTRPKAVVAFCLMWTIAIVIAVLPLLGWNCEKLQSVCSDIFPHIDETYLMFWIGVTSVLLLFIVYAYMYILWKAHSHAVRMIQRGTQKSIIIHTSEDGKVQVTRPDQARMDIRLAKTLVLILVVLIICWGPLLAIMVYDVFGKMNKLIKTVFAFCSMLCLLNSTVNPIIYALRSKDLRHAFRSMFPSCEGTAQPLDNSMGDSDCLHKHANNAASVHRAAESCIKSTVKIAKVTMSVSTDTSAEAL
Histamine H1 receptor, sequence (P35367 whole entry): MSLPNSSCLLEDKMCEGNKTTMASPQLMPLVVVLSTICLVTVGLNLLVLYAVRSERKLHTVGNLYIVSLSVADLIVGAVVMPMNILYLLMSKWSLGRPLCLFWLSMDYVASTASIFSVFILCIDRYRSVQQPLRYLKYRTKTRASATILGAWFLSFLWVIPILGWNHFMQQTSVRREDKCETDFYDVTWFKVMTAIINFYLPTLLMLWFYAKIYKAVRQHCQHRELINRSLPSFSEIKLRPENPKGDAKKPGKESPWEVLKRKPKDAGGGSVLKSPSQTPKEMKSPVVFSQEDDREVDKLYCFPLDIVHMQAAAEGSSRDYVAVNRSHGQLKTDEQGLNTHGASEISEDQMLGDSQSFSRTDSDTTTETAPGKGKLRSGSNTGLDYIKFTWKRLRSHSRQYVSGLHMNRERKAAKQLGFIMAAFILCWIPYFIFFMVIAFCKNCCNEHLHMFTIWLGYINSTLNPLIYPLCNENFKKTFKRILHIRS
5-hydroxytryptamine receptor 2A, sequence (P28223 whole entry): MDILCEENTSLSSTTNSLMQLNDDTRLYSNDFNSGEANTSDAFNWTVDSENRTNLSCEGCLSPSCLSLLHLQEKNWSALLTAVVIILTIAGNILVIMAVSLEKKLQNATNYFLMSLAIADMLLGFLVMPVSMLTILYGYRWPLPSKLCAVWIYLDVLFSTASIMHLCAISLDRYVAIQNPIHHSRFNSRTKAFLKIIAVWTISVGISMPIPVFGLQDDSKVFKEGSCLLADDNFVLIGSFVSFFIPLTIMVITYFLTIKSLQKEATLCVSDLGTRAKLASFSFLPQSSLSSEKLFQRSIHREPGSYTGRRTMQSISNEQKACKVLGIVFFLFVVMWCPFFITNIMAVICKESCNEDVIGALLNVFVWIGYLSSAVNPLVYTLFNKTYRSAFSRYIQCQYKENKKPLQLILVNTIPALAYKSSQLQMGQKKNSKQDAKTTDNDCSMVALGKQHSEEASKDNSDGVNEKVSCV
Muscarinic acetylcholine receptor M3, sequence (P20309 whole entry): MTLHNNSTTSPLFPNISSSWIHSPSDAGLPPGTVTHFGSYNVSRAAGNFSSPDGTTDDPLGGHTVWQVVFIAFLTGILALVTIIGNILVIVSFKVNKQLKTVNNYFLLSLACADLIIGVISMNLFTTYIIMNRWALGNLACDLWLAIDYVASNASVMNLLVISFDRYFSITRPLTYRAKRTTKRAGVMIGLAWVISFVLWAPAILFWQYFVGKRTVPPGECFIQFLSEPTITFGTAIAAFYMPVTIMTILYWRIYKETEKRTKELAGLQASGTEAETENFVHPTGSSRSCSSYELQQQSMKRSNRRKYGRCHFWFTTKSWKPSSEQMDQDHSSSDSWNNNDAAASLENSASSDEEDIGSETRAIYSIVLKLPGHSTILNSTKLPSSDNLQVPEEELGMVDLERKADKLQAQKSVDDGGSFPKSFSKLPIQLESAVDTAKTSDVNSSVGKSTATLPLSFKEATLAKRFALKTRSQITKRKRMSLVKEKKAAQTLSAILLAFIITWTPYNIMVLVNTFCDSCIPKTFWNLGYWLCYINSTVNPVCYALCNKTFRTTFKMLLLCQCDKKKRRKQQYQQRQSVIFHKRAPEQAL
Vasopressin V2 receptor, sequence (P30518 whole entry): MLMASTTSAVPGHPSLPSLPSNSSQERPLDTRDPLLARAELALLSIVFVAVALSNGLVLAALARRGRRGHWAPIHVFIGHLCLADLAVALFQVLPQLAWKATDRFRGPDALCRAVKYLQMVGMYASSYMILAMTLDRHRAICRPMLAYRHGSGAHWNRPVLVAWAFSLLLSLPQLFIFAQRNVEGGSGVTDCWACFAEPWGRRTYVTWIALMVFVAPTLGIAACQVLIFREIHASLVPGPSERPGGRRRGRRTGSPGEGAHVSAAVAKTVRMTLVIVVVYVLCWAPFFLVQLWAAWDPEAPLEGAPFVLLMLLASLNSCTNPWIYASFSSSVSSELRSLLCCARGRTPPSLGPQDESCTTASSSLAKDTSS
Vasopressin V1a receptor, sequence (P37288 whole entry): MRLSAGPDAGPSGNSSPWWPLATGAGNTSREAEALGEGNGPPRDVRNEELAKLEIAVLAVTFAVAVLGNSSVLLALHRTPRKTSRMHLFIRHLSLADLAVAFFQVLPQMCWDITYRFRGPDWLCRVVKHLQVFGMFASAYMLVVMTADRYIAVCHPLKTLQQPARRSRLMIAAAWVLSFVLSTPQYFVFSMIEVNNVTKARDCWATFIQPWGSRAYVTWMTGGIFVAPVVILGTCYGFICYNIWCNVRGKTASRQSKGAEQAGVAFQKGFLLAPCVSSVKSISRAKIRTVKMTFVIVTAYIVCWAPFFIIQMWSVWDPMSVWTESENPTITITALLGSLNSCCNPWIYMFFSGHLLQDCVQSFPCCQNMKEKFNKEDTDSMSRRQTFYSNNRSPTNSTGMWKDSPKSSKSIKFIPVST
Gamma-aminobutyric acid receptor subunit alpha-1, sequence (P62813 whole entry): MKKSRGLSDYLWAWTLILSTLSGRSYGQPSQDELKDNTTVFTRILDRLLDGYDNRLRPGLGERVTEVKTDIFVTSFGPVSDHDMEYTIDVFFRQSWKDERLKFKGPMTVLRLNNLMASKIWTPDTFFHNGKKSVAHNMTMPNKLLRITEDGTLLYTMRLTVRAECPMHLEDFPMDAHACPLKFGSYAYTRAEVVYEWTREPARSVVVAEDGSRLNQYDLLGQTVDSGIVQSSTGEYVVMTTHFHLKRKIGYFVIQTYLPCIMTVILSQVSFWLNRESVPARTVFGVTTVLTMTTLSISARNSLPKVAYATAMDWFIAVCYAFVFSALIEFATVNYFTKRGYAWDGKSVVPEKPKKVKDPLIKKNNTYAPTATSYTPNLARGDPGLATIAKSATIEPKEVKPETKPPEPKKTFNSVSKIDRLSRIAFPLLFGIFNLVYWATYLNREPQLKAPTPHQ
cGMP-inhibited 3',5'-cyclic phosphodiesterase 3A, sequence (Q14432 whole entry): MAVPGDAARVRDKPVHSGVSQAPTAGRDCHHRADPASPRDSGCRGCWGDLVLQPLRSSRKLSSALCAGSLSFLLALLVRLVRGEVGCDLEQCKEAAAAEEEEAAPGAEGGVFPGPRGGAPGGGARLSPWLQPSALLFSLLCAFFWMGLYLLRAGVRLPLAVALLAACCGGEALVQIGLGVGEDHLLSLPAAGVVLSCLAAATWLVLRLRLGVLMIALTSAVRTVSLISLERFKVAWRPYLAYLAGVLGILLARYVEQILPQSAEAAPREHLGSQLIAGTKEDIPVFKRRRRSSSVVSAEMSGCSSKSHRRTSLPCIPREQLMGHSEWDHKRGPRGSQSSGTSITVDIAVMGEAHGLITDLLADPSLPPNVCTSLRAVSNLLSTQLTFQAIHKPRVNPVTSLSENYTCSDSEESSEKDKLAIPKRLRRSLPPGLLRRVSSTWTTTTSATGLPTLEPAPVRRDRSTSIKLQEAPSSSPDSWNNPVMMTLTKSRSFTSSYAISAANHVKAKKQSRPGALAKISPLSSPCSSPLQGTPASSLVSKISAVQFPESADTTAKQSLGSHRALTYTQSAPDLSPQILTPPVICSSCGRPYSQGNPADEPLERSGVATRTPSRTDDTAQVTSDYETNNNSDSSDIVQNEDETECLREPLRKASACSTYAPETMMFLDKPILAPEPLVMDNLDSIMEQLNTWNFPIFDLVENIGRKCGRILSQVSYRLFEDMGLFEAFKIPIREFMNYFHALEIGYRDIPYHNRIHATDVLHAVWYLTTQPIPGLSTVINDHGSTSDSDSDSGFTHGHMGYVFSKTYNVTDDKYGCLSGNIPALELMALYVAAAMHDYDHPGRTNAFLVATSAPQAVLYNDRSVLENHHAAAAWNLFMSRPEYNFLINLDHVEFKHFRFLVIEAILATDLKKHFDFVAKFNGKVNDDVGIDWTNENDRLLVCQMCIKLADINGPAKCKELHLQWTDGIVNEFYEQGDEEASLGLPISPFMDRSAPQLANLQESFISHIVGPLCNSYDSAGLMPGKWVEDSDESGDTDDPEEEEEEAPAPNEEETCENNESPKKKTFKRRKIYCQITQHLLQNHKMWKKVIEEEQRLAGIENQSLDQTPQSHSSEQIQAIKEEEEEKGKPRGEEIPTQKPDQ

CC(C)N(CCCCOCC(=O)O)c1cnc(-c2ccccc2)c(-c2ccccc2)n1
> 10 µM: [3]
> 30 µM: all other assays above

C[N+]12CCC(CC1)C(OC(=O)C(O)(c1ccccc1)c1ccccc1)C2 (centres undefined)
0.0019 µM: [6]
> 30 µM: all other assays above

CO/N=C(\C(=O)N[C@@H]1C(=O)N2C(C(=O)O)=C(CSc3nc(=O)c(=O)[nH]n3C)CS[C@H]12)c1csc(N)n1 [CEFTRIAXONE]
not listed: [11]
> 30 µM: all other assays above

CN1CCN=C(c2ccccc2)c2cc(Cl)ccc21 [MEDAZEPAM]
2.1 µM: [8]
> 30 µM: all other assays above

O=C(NCCO[N+](=O)[O-])c1cccnc1 [NICORANDIL]
not listed: [11]
> 30 µM: all other assays above

O=c1[nH]c2ccccc2n1CCCN1CCN(C(c2ccccc2)c2ccccc2)CC1 [OXATOMIDE]
22 µM: [13]
1.2 µM: [4]
0.034 µM: [1]
3.5 µM: [6]
not listed: [11]
> 30 µM: all other assays above

COc1cc2[nH]c(C)c(CCN3CCN(c4ccccc4)CC3)c2cc1OC [OXYPERTINE]
0.41 µM: [4]
1.9 µM: [1]
0.25 µM: [14]
not listed: [11]
> 30 µM: all other assays above

COc1cc(C(=O)OCc2cccc(COC(=O)c3cc(OC)c(OC)c(OC)c3)n2)cc(OC)c1OC [PIROZADIL]
not listed: [11]
> 30 µM: all other assays above

CCN1CCCC1CNC(=O)c1cc(S(=O)(=O)CC)ccc1OC (centres undefined) [SULTOPRIDE]
10 µM: [14]
> 30 µM: all other assays above
